Normal melting temperature data for 2 compounds are collected here from the NIST ThermoML archive (doi:10.1016/j.fluid.2012.01.031).

For the series the following is noted: Crystal; DTA.

Structures are written as SMILES. ± gives the expanded uncertainty stated by the source.

`c1ccc2c(c1)oc1ccccc12` [dibenzo[bd]furan]: the Normal melting temperature came to 82.51 ± 0.41 °C.

With `c1ccc2c(c1)Cc1ccccc1-2` [fluorene], the Normal melting temperature turned out to be 114.38 ± 0.41 °C.
